We go through two compounds from ChEMBL document CHEMBL1155946, “Design, synthesis and biological evaluation of glutathione peptidomimetics as components of anti-Parkinson prodrugs” (J Med Chem, 2008).

The term half-life denotes the time in which the quantity being followed falls by half. High values mean slow decline, low ones rapid decline.

Active and inactive are the calls of the source. The rule behind the calls is not given here.

One data set has as its system MDCK. The experiment in a line: Inhibition of [3H]glutathione uptake at glutathione transporter in MDCK cells at 10 nM to 1000 nM by HPLC. The class given is cell-based. Particulars: Canis lupus familiaris.
Data set [1] can be described thus: Metabolic stability in rat brain at 37 degC. The class given is ADME, tissue-based.
Data set [2] is described as follows: Stability in buffer solution at pH 7.2.
Data set [3] is described as follows: Metabolic stability in rat plasma at 37 degC. The class given is ADME, cell-free.

On to `N[C@@H](CNC(=O)N[C@@H](CSSCC(=O)C(=O)NC12CC3CC(CC(C3)C1)C2)C(=O)NCC(=O)O)C(=O)O`, for which the outcome with MDCK was Active.

`N[C@@H](CNC(=O)N[C@@H](CSSCC(=O)C(=O)NCCc1ccc(O)c(O)c1)C(=O)NCC(=O)O)C(=O)O`: the half-life was 6 h in data set [1], > 12 h in data set [2] and 3 h in data set [3]. The outcome in the data set with MDCK was Active.
